“Also recorded” adds a separate entry of the source. Read-outs that look alike come from different tables or passages of the source.
Columns and labels:
[1] = Excretion in feces, urine and bile (material balance) in rats; assay type: in vivo, Sprague Dawley rats
Method: After the single-dose intragastric administration of HY-071085 (6.5 mg/kg) to male and female rats, their feces, urine and bile were collected at various time points within 24 h in order to analyze the excretion of HY-071085. The amount of unchanged parent compound recovered from the feces, urine and bile was negligible in rats (about 1.3% of the dose, Table 3).
Excretion in urine and feces (rats): The Sprague Dawley rats were aged approximately 6 weeks old and weighed 185–212 g at the onset of treatment. Urine and fecal samples were collected for the excretion study using metabolic cages. After the oral administration of 6.5 mg/kg HY-071085, urine and feces were collected at 0–6, 6–12 and 12–24 h. The urine volumes were recorded and transferred to centrifuge tubes. The fecal weights were recorded at each sampling period, and then those feces were dried, ground and mixed thoroughly. Then, 0.1 g feces was accurately weighed, mixed with 1 mL deionized water, and homogenized to be used as a fecal sample. All of the samples were stored at –80 °C until the analysis.
Excretion in bile (rats): The Sprague Dawley rats were approximately 6 weeks old and weighed 174–215 g at the onset of treatment. The rats were anesthetized with diethyl ether, and the bile duct was then cannulated for bile collection. After allowing recovery from surgery and anesthesia, these bile duct–cannulated rats were administered a single 6.5 mg/kg dose of HY-071085 by gastric gavage.

[2] = Stability in rat plasma under storage conditions; assay type: in vitro ADME; conditions: for stability in plasma, accuracy: n=5
Method: The stability of HY-071085 in rat plasma was evaluated by analyzing five repeated QC samples under various storage conditions: long-term freezing (freezing at −80 °C for 30 days), repeated freezing and thawing (thawing with a 37 °C water bath after freezing at −80 °C, repeated three times), normal temperature placement (a 37 °C constant temperature water bath for 8 h), and injector placement (4 °C for 24 h).

[3] = Pharmacokinetics after single-dose intravenous administration in rats; assay type: in vivo, Sprague Dawley rats; conditions: S-IV 3.25 mg/kg; for AUC(0-inf) / AUC / MRT / half-life: rat, plasma; for AUC: read-out: AUC0-tn
Method: The PK parameters after the intravenous administration of 3.25 mg/kg HY-071085 (before use, prepared with 5% DMSO + 95% normal saline mixture) are listed in Table 1.
(§1) In vivo PK profiling in the rats: Sprague Dawley rats (approximately 177–221 g in weight) were purchased from Shanghai Xipur-Bikai Experimental Animal Co., Ltd. (Shanghai, China). Before the experiment, several rats were randomly divided into several groups, half males and half females in each group, fasting but free to drink water for 12 h. The dosage of the rats was dependent on the drug pharmacology: the HY-071085 active pharmaceutical ingredients were administered with a dosage volume of 0.25 mL/100 g body weight. The whole-blood samples were centrifuged at 8000 rpm for 5 min, and the plasma samples were separated and stored at –80 °C until the analysis.
(§2) According to the obtained plasma concentration time data, the pharmacokinetic parameters were calculated using Phoenix WinNonlin 8.1 software. The pharmacokinetic parameters—i.e., the area under the curve (AUC), mean residence time (MRT), clearance rate (Cl/F) and steady-state apparent distribution volume (Vss/F)—were calculated by the method of moments, which was estimated according to the following formulae: AUCtn=∑Ci+Ci−1ti−ti−1/2 AUC∞=AUCtn+Cm/λ AUMCtn=∑tiCi+ti−1Ci−1ti−ti−1/2 AUMC∞=AUMCtn+Ctntn/λ+1/λ^2 MRT=AUMC∞/AUC∞ Cl/F=Dose/AUC Vss/F=Cl∗MRT where Ctn is the plasma concentration of tn at the last point after administration, and the elimination rate constant was obtained by ln(concentration) time linear regression.
(§3) Due to the drug having significant individual differences in rats, it could not be uniformly fitted with a PK atrioventricular model; as such, the pharmacokinetic parameters analyzed in this study were calculated using a non-atrioventricular model. The pharmacokinetic parameters are defined as follows: Cmax is the maximum blood concentration after administration and absorption, Tmax is the time required to reach Cmax, t1/2 is the time required to eliminate half of the plasma drug concentration after the drug distribution in the body reaches equilibrium, Cl/F is the apparent clearance rate, AUC0-tn is the area under the blood concentration time curve within the dosing interval, AUC0-∞ is the area under the plasma concentration time curve from 0 to infinity, MRT is the average time that all drug molecules stay in the body, and Vss/F is the steady-state apparent distribution volume, which is the product of the clearance rate and average residence time.

[4] = Pharmacokinetics after repeated-dose intragastric administration in rats; assay type: in vivo, Sprague Dawley rats; conditions: for CL/F at 14 days / MRT at 14 days / CL/F at 28 days / MRT at 28 days / Tmax at 14 days / Cmax at 14 days / half-life at 14 days / Vd/F at 14 days / Cmax at 28 days / Tmax at 28 days / half-life at 28 days / Vd/F at 28 days / AUC(0-inf) / AUC: rat, plasma, po, R-IG 6.5 mg/kg; for Vd/F at 14 days / Vd/F at 28 days: read-out: Vss/F; for decrease of plasma exposure level compared with single administration / AUC(0-inf) / AUC: 6.5 mg/kg; for decrease of plasma exposure level compared with single administration: after 28 days of continuous administration; for plasma drug exposure level as % of the single dose: 28th day of intragastric administration; for AUC: read-out: AUC0-tn
Method: Male and female rats were given HY-071085 (6.5 mg/kg) by gastric gavage twice a day for 28 days. […] After 28 days of continuous administration, the plasma exposure levels of the male and female rats decreased by 49% and 85%, respectively, compared with that after a single administration (Figure 6).
as §1, §2, §3

[5] = gavage 6.5 mg/kg, within 24 h, % of the dose
[6] = Sprague Dawley, female rats, 14 days
[7] = Sprague Dawley, female rats, 28 days
[8] = Sprague Dawley, male rats, 14 days
[9] = Sprague Dawley, male rats, 28 days
[10] = Sprague-Dawley, female rats, 14 days
[11] = Sprague-Dawley, female rats, 28 days
[12] = Sprague-Dawley, male rats, 14 days
[13] = Sprague-Dawley, male rats, 28 days
[14] = female, Sprague Dawley, female rats, 14 days
[15] = female, Sprague Dawley, female rats, 28 days
[16] = male, Sprague Dawley, male rats, 14 days
[17] = male, Sprague Dawley, male rats, 28 days

CC1(C)OC2CC(=O)OCC23C1C/C(=N\OCCN1CCOCC1)C1(C)C3CC[C@@]2(C)[C@H](c3ccoc3)OC(=O)C3OC312 (stereo partly drawn) [HY-071085, (12S,12aS,E)-12-(furan-3-yl)-6,6,8a,12a-tetramethyl-8-((2-morpholinoethoxy)imino)dodecahydro-1H,3H-oxireno [2,3-d]pyrano [4’,3’:3,3a]isobenzofuro [5,4-f]isochromene-3,10(9aH)-dione]
route of elimination ([1]; excretion and material balance): mainly eliminated as metabolites; also recorded: mainly eliminated by metabolism
HY-071085 prototype recovered in bile ([1]; gavage 6.5 mg/kg, bile 0~8 h, % of the dose): 0.206 ± 0.206%
HY-071085 prototype recovered in feces [1, 5]: 0.812 ± 0.611%
HY-071085 prototype recovered in urine [1, 5]: 0.254 ± 0.164%
stability in plasma, accuracy ([2]; injector (24h, 4 °C), 2 ng/mL): 105.00%
stability in plasma, accuracy ([2]; injector (24h, 4 °C), 800 ng/mL): 101.55%
stability in plasma, accuracy ([2]; long-term freezing (−80 °C, 30 days), 2 ng/mL): 112.40%
stability in plasma, accuracy ([2]; long-term freezing (−80 °C, 30 days), 800 ng/mL): 101.50%
stability in rat plasma ([2]; long-term freezing, repeated freezing and thawing, 37 °C 8 h, injector 4 °C 24 h): stable
stability in plasma, accuracy ([2]; normal temperature (8h), 2 ng/mL): 105.90%
stability in plasma, accuracy ([2]; normal temperature (8h), 800 ng/mL): 97.70%
stability in plasma, accuracy ([2]; repeated freeze-thaw (three times), 2 ng/mL): 97.40%
stability in plasma, accuracy ([2]; repeated freeze-thaw (three times), 800 ng/mL): 97.33%
AUC(0-inf) ([3]; Sprague Dawley, female rats): 684 ± 39.2 ng·h/mL
AUC ([3]; Sprague Dawley, female rats): 682 ± 225 ng·h/mL
AUC(0-inf) ([3]; Sprague Dawley, male rats): 740 ± 146 ng·h/mL
MRT ([3]; Sprague Dawley, male rats): 17.4 ± 2.4 min
AUC ([3]; Sprague Dawley, male rats): 739 ± 146 ng·h/mL
MRT ([3]; Sprague-Dawley, female rats): 20.4 ± 3 min
half-life ([3]; Sprague-Dawley, female rats): 20.4 ± 3 min
half-life ([3]; Sprague-Dawley, male rats): 24 ± 6 min
Cl/F ([3]; female rats): 79.3 ± 4.5 mL/min/kg
Vss/F ([3]; female rats): 1.63 ± 0.17 L/kg
Cl/F ([3]; male rats): 75 ± 11.8 mL/min/kg
Vss/F ([3]; male rats): 1.31 ± 0.18 L/kg
CL/F at 14 days [4, 6]: 630 mL/min/kg
MRT at 14 days [4, 6]: 131 ± 16.2 min
CL/F at 28 days [4, 7]: 1730 mL/min/kg
MRT at 28 days [4, 7]: 152 ± 69 min
CL/F at 14 days [4, 8]: 836 mL/min/kg
Tmax at 14 days [4, 8]: 39 ± 22.8 min
CL/F at 28 days [4, 9]: 1860 mL/min/kg
MRT at 28 days [4, 9]: 104 ± 51.6 min
Cmax at 14 days [4, 10]: 125 ± 80.3 ng/mL
Tmax at 14 days [4, 10]: 40.8 ± 45 min
half-life at 14 days [4, 10]: 82.8 ± 14.4 min
Vd/F at 14 days [4, 10]: 80 ± 51 L/kg
Cmax at 28 days [4, 11]: 37.2 ± 19.9 ng/mL
Tmax at 28 days [4, 11]: 19.8 ± 9.6 min
half-life at 28 days [4, 11]: 105 ± 68.4 min
Vd/F at 28 days [4, 11]: 292 ± 251 L/kg
Cmax at 14 days [4, 12]: 63.2 ± 11.2 ng/mL
MRT at 14 days [4, 12]: 136 ± 19.8 min
half-life at 14 days [4, 12]: 91.2 ± 13.8 min
Vd/F at 14 days [4, 12]: 108 ± 13.8 L/kg
Cmax at 28 days [4, 13]: 38.9 ± 12.7 ng/mL
Tmax at 28 days [4, 13]: 36 ± 46.8 min
half-life at 28 days [4, 13]: 66.6 ± 24.6 min
Vd/F at 28 days [4, 13]: 169 ± 35.2 L/kg
decrease of plasma exposure level compared with single administration ([4]; female rats): 85%
plasma drug exposure level as % of the single dose ([4]; female rats): about 15%
AUC(0-inf) [4, 14]: 233 ± 159 ng·h/mL
AUC [4, 14]: 229 ± 159 ng·h/mL
AUC(0-inf) [4, 15]: 70.2 ± 28.8 ng·h/mL
AUC [4, 15]: 65.8 ± 28.9 ng·h/mL
decrease of plasma exposure level compared with single administration ([4]; male rats): 49%
plasma drug exposure level as % of the single dose ([4]; male rats): about 50%
AUC(0-inf) [4, 16]: 133 ± 22.3 ng·h/mL
AUC [4, 16]: 127 ± 22.4 ng·h/mL
AUC(0-inf) [4, 17]: 59.9 ± 10.5 ng·h/mL
AUC [4, 17]: 55 ± 8.82 ng·h/mL

— article PMC9316000, “Preclinical Drug Pharmacokinetic, Tissue Distribution and Excretion Profiles of the Novel Limonin Derivate HY-071085 as an Anti-Inflammatory and Analgesic Candidate in Rats and Beagle Dogs” (Pharmaceuticals, 2022)
